Data as given in ChEMBL document CHEMBL1201862, “PubChem BioAssay data set” (2004).
Where “and” joins values, the source holds several entries; their conditions need not be identical. Identical values can stand only once.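 Test compounds were applied to cells in 96-well plates for 48 hours at 5 doses. GI50: concentration for 50% inhibition of growth.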 Calls of active or inactive are those of the source. Cut-off read from the data, not from the text of the source: active = GI50 up to about 1.1 µM and inactive = higher.

Key:
Assay in all cases: inhibition of tumour cell growth, NCI panel, 48 h
786-0 = test system: 786-0
A498 = test system: A498
A549 = test system: A549
ACHN = test system: ACHN
CCRF-CEM = test system: CCRF-CEM
COLO 205 = test system: COLO 205
DLD-1 = test system: DLD-1
DMS-114 = test system: DMS-114
EKVX = test system: EKVX
HCC 2998 = test system: HCC 2998
HCT-116 = test system: HCT-116
HCT-15 = test system: HCT-15
HL-60 = test system: HL-60
HOP-62 = test system: HOP-62
HOP-92 = test system: HOP-92
HT-29 = test system: HT-29
IGROV-1 = test system: IGROV-1
K562 = test system: K562
KM-20L2 = test system: KM-20L2
KM12 = test system: KM12
LOX IMVI = test system: LOX IMVI
LXFL 529 = test system: LXFL 529
M14 = test system: M14
M19-MEL = test system: M19-MEL
MOLT-4 = test system: MOLT-4
Malme-3M = test system: Malme-3M
NCI-H226 = test system: NCI-H226
NCI-H23 = test system: NCI-H23
NCI-H460 = test system: NCI-H460
OVCAR-3 = test system: OVCAR-3
OVCAR-5 = test system: OVCAR-5
OVCAR-8 = test system: OVCAR-8
RPMI-8226 = test system: RPMI-8226
RXF 393 = test system: RXF 393
SF-268 = test system: SF-268
SF-295 = test system: SF-295
SF-539 = test system: SF-539
SK-MEL-28 = test system: SK-MEL-28
SK-MEL-2 = test system: SK-MEL-2
SK-MEL-5 = test system: SK-MEL-5
SK-OV-3 = test system: SK-OV-3
SN12C = test system: SN12C
SNB-19 = test system: SNB-19
SNB-75 = test system: SNB-75
SNB-78 = test system: SNB-78
SW-620 = test system: SW-620
TK-10 = test system: TK-10
U-251 = test system: U-251
UACC-257 = test system: UACC-257
UACC-62 = test system: UACC-62
UO-31 = test system: UO-31
CAKI-1 = test system: CAKI-1
DMS-273 = test system: DMS-273
NCI-H522 = test system: NCI-H522
OVCAR-4 = test system: OVCAR-4
BT-549 = test system: BT-549
DU-145 = test system: DU-145
Hs-578T = test system: Hs-578T
MCF7 = test system: MCF7
MDA-MB-231 = test system: MDA-MB-231
MDA-MB-435 = test system: MDA-MB-435
MDA-N = test system: MDA-N
NCI/ADR-RES = test system: NCI/ADR-RES
PC-3 = test system: PC-3
SR = test system: SR
T47D = test system: T47D

Measured: GI50

Cc1nc(-n2nc(-c3ccccc3)cc2-c2ccccc2)sc1C(/C=C/c1ccc([N+](=O)[O-])cc1)=N/NC(=O)c1ccncc1
inactive: 786-0 13.5 µM | A498 49.3 µM | A549 30.3 µM | ACHN 23.6 µM | CCRF-CEM 7.6 µM | COLO 205 21.6 µM | DLD-1 11.6 µM | DMS-114 13.9 µM | EKVX 36.8 µM | HCC 2998 5.82 µM | HCT-116 9.12 µM | HL-60 11 µM | HOP-62 12.8 µM | HOP-92 11.5 µM | HT-29 14.4 µM | IGROV-1 21.1 µM | K562 13.9 µM | KM-20L2 19.4 µM | KM12 4.06 µM | LOX IMVI 14.2 µM | LXFL 529 12.7 µM | M14 20.2 µM | M19-MEL 25.4 µM | MOLT-4 6.89 µM | Malme-3M 21.9 µM | NCI-H226 17.9 µM | NCI-H23 14.8 µM | NCI-H460 40 µM | OVCAR-3 12.6 µM | OVCAR-5 53.1 µM | OVCAR-8 28.9 µM | RPMI-8226 7.16 µM | RXF 393 22.4 µM | SF-268 20 µM | SF-295 29 µM | SF-539 13.1 µM | SK-MEL-28 31.1 µM | SK-MEL-2 17.7 µM | SK-MEL-5 18.1 µM | SK-OV-3 44.8 µM | SN12C 24.2 µM | SNB-19 14 µM | SNB-75 22.9 µM | SNB-78 17.3 µM | SW-620 26.7 µM | TK-10 32.6 µM | U-251 27.7 µM | UACC-257 41.7 µM | UACC-62 19.4 µM | UO-31 11.7 µM
14.7 µM: HCT-15

NCCSSC/C=C\CSSCCN
46.9 µM and 34.3 µM: HCT-15
inactive: CAKI-1 33.7 µM and 38.8 µM | CCRF-CEM 5.56 µM | DMS-114 30.8 µM and 20 µM | DMS-273 41.1 µM and 22 µM | HCT-116 40.3 µM and 36.8 µM | HL-60 7.06 µM and 14.1 µM | HOP-92 38 µM and 41.6 µM | HT-29 26.6 µM and 34.6 µM | LXFL 529 23.9 µM and 20.1 µM | M14 17.8 µM and 31.5 µM | M19-MEL 50.9 µM and 29.4 µM | MOLT-4 18.6 µM and 15.5 µM | NCI-H23 29.6 µM and 40.7 µM | NCI-H522 15.7 µM and 15.5 µM | OVCAR-4 18.8 µM and 26.7 µM | OVCAR-8 17.6 µM and 27.2 µM | RPMI-8226 26.2 µM and 21.9 µM | RXF 393 54.1 µM and 35.9 µM | SF-539 29.6 µM and 18.1 µM | SNB-75 34.8 µM and > 53.3 µM | SNB-78 35.2 µM and 28.4 µM | SW-620 16.2 µM and 13.5 µM | U-251 34.4 µM and 20.6 µM

CC1(C)C2C=C(CCN3CCOCC3)CC1C2 (centres undefined)
> 100 µM: HCT-15
inactive: 786-0 > 100 µM | A498 > 100 µM | A549 > 100 µM | ACHN > 100 µM | BT-549 > 100 µM | CAKI-1 > 100 µM | CCRF-CEM > 100 µM | COLO 205 > 100 µM | DU-145 > 100 µM | EKVX > 100 µM | HCC 2998 > 100 µM | HCT-116 > 100 µM | HL-60 > 100 µM | HOP-62 > 100 µM | HOP-92 15.3 µM | HT-29 > 100 µM | Hs-578T > 100 µM | IGROV-1 > 100 µM | K562 > 100 µM | KM12 > 100 µM | LOX IMVI > 100 µM | M14 > 100 µM | MCF7 > 100 µM | MDA-MB-231 > 100 µM | MDA-MB-435 > 100 µM | MDA-N > 100 µM | MOLT-4 > 100 µM | Malme-3M > 100 µM | NCI-H226 64.9 µM | NCI-H23 > 100 µM | NCI-H460 > 100 µM | NCI-H522 > 100 µM | NCI/ADR-RES > 100 µM | OVCAR-3 > 100 µM | OVCAR-4 > 100 µM | OVCAR-5 > 100 µM | OVCAR-8 > 100 µM | PC-3 > 100 µM | RPMI-8226 > 100 µM | RXF 393 > 100 µM | SF-268 > 100 µM | SF-295 > 100 µM | SF-539 > 100 µM | SK-MEL-28 > 100 µM | SK-MEL-2 > 100 µM | SK-MEL-5 > 100 µM | SK-OV-3 > 100 µM | SN12C > 100 µM | SNB-19 > 100 µM | SNB-75 71.3 µM | SR > 100 µM | SW-620 > 100 µM | T47D > 100 µM | TK-10 > 100 µM | U-251 > 100 µM | UACC-257 > 100 µM | UACC-62 > 100 µM | UO-31 > 100 µM
